Source: PubChem BioAssay (NCI)
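Cultured in 96-well plates, cells were exposed to test compound for 48 hours across five concentrations. The concentration for full growth arrest is given as TGI.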

Legend:
Assay in all cases: NCI anticancer screen, dose series, 48 h
[1] = system: MDA-N
[2] = system: MCF7 breast
[3] = system: MDA-MB-231 breast
[4] = system: MOLT-4 leukemia
[5] = system: UACC-62 melanoma
[6] = system: IGROV1 ovarian
[7] = system: LOX IMVI melanoma
[8] = system: MDA-MB-435
[9] = system: SK-MEL-2 melanoma
[10] = system: SR leukemia

Structure (SMILES)	TGI [1] [µM]	TGI [2] [µM]	TGI [3] [µM]	TGI [4] [µM]	TGI [5] [µM]	TGI [6] [µM]	TGI [7] [µM]	TGI [8] [µM]	TGI [9] [µM]	TGI [10] [µM]
Nc1[nH]c(=O)nc2c1ncn2C1OC(CO)C(O)C1O (stereo unspecified)	> 100	> 100	> 100	63.3	> 100	> 100	> 100	> 100	> 100	–
COc1ccccc1NC(=O)C(=O)C(C(=O)c1ccccc1F)C1OC(=O)c2ccccc21 (stereo unspecified)	–	–	–	> 100	34.9	> 100	39.2	–	> 100	60.7
O=C1Nc2ccccc2/C1=C\c1c(Cl)n(-c2ccccc2)c2ccccc12	–	88	13.7	> 100	66.7	9.64	17.8	–	36.3	> 100
CC1=C(CO)C(=O)OC(C(C)C2CCC3C4CC5OC56C(O)C(N5CC5)=CC(=O)C6(C)C4CCC23C)C1 (stereo unspecified)	–	–	–	8.52	23.8	14.4	31.1	–	18.1	10.5
Cc1nc(NC(C)(CO)CO)nc(N/N=C/c2ccc(Cl)cc2)c1C(=O)Nc1ccc(Cl)cc1	> 100	> 100	> 100	> 100	> 100	> 100	> 100	> 100	> 100	–
FC1=C2C3CCC(C3)C2C1(F)F (stereo unspecified)	> 100	> 100	> 100	> 100	> 100	> 100	> 100	> 100	> 100	–
NC(=O)CCC(N=c1c2ccccc2n(O)c2ccccc12)C(=O)O (stereo unspecified)	–	–	–	> 100	> 100	> 100	> 100	–	> 100	–
CCC1(c2ccc(N3C(=O)c4cccc5cc([N+](=O)[O-])cc(c45)C3=O)cc2)CCC(=O)NC1=O (stereo unspecified)	–	> 100	21.4	> 100	> 100	38.6	> 70.6	> 100	> 100	–
CCOC(=O)c1c(N)sc2c1C(C(=O)OCC)CCCC2 (stereo unspecified)	> 100	> 100	> 100	> 100	> 100	> 100	–	–	> 100	> 100
CSC(SC)=C(C(=O)c1ccc(Cl)cc1)n1c(=O)sc2cc(Br)ccc21	> 100	> 100	> 100	> 100	> 100	> 100	> 100	> 100	> 100	–
CC(O)c1nc(C#N)c(N)o1 (stereo unspecified)	> 100	> 100	> 100	> 100	> 100	> 100	> 100	–	> 100	–
COc1cc2c[n+]3c4c(c2c(OC)c1OC)CCCC4CC3 (stereo unspecified)	> 100	–	> 100	> 100	> 100	> 100	–	> 100	> 100	–
O=C1NC(O)c2cc3ccccc3cc2O1 (stereo unspecified)	–	> 100	> 100	> 100	48.5	> 100	95.3	> 100	–	71.3
C=C1c2nc3ccccc3n2C=C(c2ccc(C)cc2)N1c1ccc(OC)cc1	–	> 100	> 100	> 100	> 100	> 100	> 100	49.2	> 100	19.8
CC(C)CCCC(C)[C@H]1CCC(C2C[C@@H](O)[C@@H]3CC(O)[C@@H](O)C[C@]3(CO)C2=O)[C@]1(C)CCO (stereo partly specified)	–	20.4	–	22.4	34.5	42.4	39.3	–	39.7	–
CCOC(=O)c1c(-c2ccc(OC)cc2)ccn1C	–	> 10	> 10	> 10	> 10	> 10	> 10	> 10	> 10	> 10
CC1=NN(C(=O)CC(=O)Nc2cccc(C)c2)C(=O)C1N=Nc1ccc(S(=O)(=O)CCOS(=O)(=O)O)cc1 (stereo unspecified)	0.902	13.4	14.8	> 31.7	9.34	12.4	5.47	–	2.67	> 100
CC(C)(C)C(=O)Nc1c(C=O)ccc2[nH]cnc12	> 100	> 100	> 100	73.7	–	> 100	> 100	> 100	> 100	–
